Patent US20260242390A1, “TOTAL SYNTHESES OF PORTIMINE A AND ANALOGUES THEREOF AS SMALL MOLECULE MODULATORS OF NMD3” (priority 2023, published 2026)

Tests used:
[1] = test system: human T-cell acute lymphoblastic leukaemia (T-ALL) cell lines; details: cited from earlier work
[2] = test system: normal murine haematopoietic cells; details: cited from earlier work
[3] = test system: Jurkat cells; assay: Initial SAR: activity of PAL functionalized PTMA analogs; type: cell-based, human; details: in the concentrate range
Excerpt: FIG. 3. Initial SAR studies: Assessing activity of PAL functionalized PTMA analogs. […] (A) PA and Ph-PA show less toxic to healthy PBMCs compared to Jurkat cells. […] (B) Immunoblot of caspase-3 in Jurkat and PBMCs with indicated conditions.
• 1) Portimine A and its functional analogs show stereo-selective acute toxicity in cancer cells (FIG. 1). […] (B) Structure of portimine related analogs: phenyl-portimine A (Ph-PA, 36) and epi-portimine A (ePA, 38). Structure of fully functionalized portimine A-based epimeric probe pair: portimine A-diazirine-alkyne (PA-DA, 35-2) and epi-portimine A-diazirine-alkyne (ePA-DA, 35-1). (C) Cell viability analysis of portimine A and analogs. Jurkat cells were treated with increasing concentrations of portimine A and analogs for 24 hours. All presented data as mean of biological replicated experiments (n=3). […] Jurkat cells were treated with portimine A or analogs for 12 hours at 10 nM. […] Structurally related negative control ePA and PB are non-toxic in all cell types in the current concentrate range. PBMCs (25k per well), Jurkat (10k per well). […] Cell cycle analysis in Jurkat cells (FIG. 2). Jurkat cells were treated with 10 nM of indicated compounds for 24 hours, and propodium iodide was used to identify different stages of cells by flow cytometry. […] (A) PA and Ph-PA show less toxic to healthy PBMCs compared to Jurkat cells. […] (B) Immunoblot of caspase-3 in Jurkat and PBMCs with indicated conditions. […] (A) Pharmacokinetic studies of mouse intraperitoneal (i.p.) and oral (p.o.) administration for portimine (n=3). […] Impact of PA [0.3 or 1 mg/kg intraperitoneally] on MC38 tumor growth in WT mice (n=6). (C) Kaplan-Myer survival curve of WT MC38 tumor-bearing mice (n=6) after treatment with PA as described in (D). Mice were euthanized when tumor area exceeded 2000 mm^3. Statistical analysis was performed using ANOVA analysis followed by multiple comparisons test, * p≤0.05. Treatment condition: Jurkat (60 M per condition); PA-DA/ePA-DA concentration: 0.5 uM, PA or ePA: 5 uM; Incubate with probe with or without competitors (PA, ePA) for 30 min; UV irradiated for 20 min. (0.5 uM PA-DA add a no-UV condition), Standard pulldown & biotin-enrichment and western blot analysis (Elute condition: 2× sample buffer+500 uM biotin, boil for 20 mins); Primary antibody NMD3 (ProteinTech, 1:150), Actin (BioRad, 1:10000). […] Cell lysates were fractionated by sucrose gradient (5-50%) and each fraction were analyzed by western blot. eIF6 levels increase in 60S subunit fraction and decrease in ribosome-free fractions after PA treatment. […]

SMILES	apoptosis in a panel of 14 human T-ALL cell lines [1]	toxicity to normal murine haematopoietic cells [2]	activity of PAL functionalized PTMA analogs [3]
O=C(/C=C\n1cnc(-c2cc(C(F)(F)F)cc(C(F)(F)F)c2)n1)NNc1cnccn1 [KPT-330]	induced rapid apoptosis at low nanomolar concentrations	little toxicity	–
CC(=O)O[C@@H]1CC(C)[C@@H]2CC[C@@]3(C[C@@H](O)C4=NCC[C@@]45CCC(c4ccc(C(=O)NCCC6(CCC#N)N=N6)cc4)=C[C@@H]5[C@H](O3)C1=O)O2 (stereo partly drawn) [epi-PTMA-Ac-DA]	–	–	no activity
